# Results taken from PMC12571071, “Preventing neuropathy and improving anticancer chemotherapy with a carbazole-based compound” (Science Advances, 2025).
# Like-named read-outs stand apart in the source and are kept apart here.
# How the values were obtained:
# HeLa cells [1] = assay: HeLa cell viability (PrestoBlue) assay, 72 h; format: cell-based, human; conditions: HeLa cells; for GI50: Homo sapiens
# Description: The human HeLa cell line was tested negative for mycoplasma contamination. HeLa cells were grown in RPMI 1640 medium supplemented with penicillin/streptomycin (100 μg/ml) and 10% FBS and maintained in a humidified incubator at 37°C and 5% CO2.
# Cell viability was analyzed using the colorimetric PrestoBlue assay. Cells were seeded in 96-well microplates at a density of 7500 cells per well, allowed to adhere for 24 hours, and treated for 72 hours with either DMSO or drugs at indicated concentrations. PrestoBlue (10 μl) was then added to each well, followed by a 30-min incubation. Fluorescence was measured using a FLUOstar Optima microplate reader (excitation, 544 nm; emission, 580 nm; BMG Labtech).
# NAMPT [2] = biological target: T1, NAMPT (Homo sapiens, UniProt P43490); assay: NAMPT activity assay (coupled recombinant enzyme kit); format: biochemical; parameters: purchased Abcam ab221819; conditions: OD450 at 60 min, normalized by subtraction of DMSO value
# Excerpt: We next tested whether Carba1 could activate NAMPT in vitro. To that aim, we used a commercial recombinant human enzyme assay containing four enzymes: NAMPT, NAM nucleotide adenylyltransferase 1 (NMNAT1), alcohol dehydrogenase (ADH), and diaphorase (see Materials and Methods). In the presence of NAM and 5-phosphoribosyl-1-pyrophosphate (PRPP), NAMPT converts NAM to NMN, which is then converted into NAD^+ by NMNAT1, while ADH converts NAD^+ to NADH. Then, into a coupled-reaction, diaphorase converts NADH into NAD^+ and tetrazolium salt WST-1 {4-[3-(4-iodophenyl)-2-(4-nitro-phenyl)-2H-5-tetrazolio]-1,3-benzene sulfonate} to formazan, which can be detected at optical density at 450 nm (OD450). In practice, we proceeded in two steps. First, Carba1 and the different tested compounds were incubated for 15 min with NAMPT, NMNAT1, NAM, and PRPP to allow NAD^+ production. The reaction was then stopped with FK866 before adding ADH and diaphorase to convert the NAD^+ produced to NADH, and absorbance was monitored at regular intervals.
# NAMPT activity was measured using the commercial kit, NAMPT Activity Assay, according to the manufacturer’s instructions. […] A mixture of water-soluble tetrazolium salts (WST-1), ADH, diaphorase, and ethanol was added and the absorbance (OD450) measured for 90 min using the microplate reader ClarioSTAR (BMG Labtech).
# Target sequence in this assay (P43490 whole entry): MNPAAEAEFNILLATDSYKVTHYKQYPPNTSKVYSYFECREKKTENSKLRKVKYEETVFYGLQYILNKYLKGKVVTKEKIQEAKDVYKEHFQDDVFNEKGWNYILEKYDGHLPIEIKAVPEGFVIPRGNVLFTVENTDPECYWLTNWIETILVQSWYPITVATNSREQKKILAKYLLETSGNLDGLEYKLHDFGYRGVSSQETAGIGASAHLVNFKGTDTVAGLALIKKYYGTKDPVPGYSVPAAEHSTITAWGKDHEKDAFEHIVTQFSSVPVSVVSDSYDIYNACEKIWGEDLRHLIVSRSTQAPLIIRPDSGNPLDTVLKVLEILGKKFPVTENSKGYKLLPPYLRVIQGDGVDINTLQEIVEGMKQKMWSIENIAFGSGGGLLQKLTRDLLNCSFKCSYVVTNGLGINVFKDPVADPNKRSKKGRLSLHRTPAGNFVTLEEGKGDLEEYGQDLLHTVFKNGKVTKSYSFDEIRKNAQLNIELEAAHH
# carbonic anhydrase (CA) = assay: AS-MS binding assay, carbonic anhydrase (negative control); conditions: 10 μM compound, 3 μM carbonic anhydrase
# Description: (§1) To this end, Carba1 or FK866 (positive control of NAMPT binding) was first incubated with NAMPT or carbonic anhydrase (CA; negative control). Protein-ligand complexes were separated from the unbound compounds by size exclusion chromatography (SEC). To quantify the protein-bound fraction, the complexes were then dissociated using reverse-phase chromatography, and the compounds were analyzed and quantified by mass spectrometry. By comparing the amounts of compound before (preSEC) and after (postSEC) SEC in the presence of CA or NAMPT, we assessed their ability to selectively bind to NAMPT.
# (§2) AS-MS was used to assess compound binding to NAMPT. AS-MS was performed by Edelris SAS (www.edelris.com/), which has developed the commercial AS-MS service “EDEN platform,” based on ([71]). Conditions consisted of protein (NAMPT and CA) at 3 μM and compounds (Carba1 and FK866) at 10 μM dissolved in corporate buffer.
# NAMPT [3] = biological target: T1, NAMPT; assay: AS-MS binding assay, NAMPT; conditions: 10 μM compound, 3 μM NAMPT
# Description: as §1, with “spectrometry.” for “spectrometry. By comparing the amounts of compound before (preSEC) and after (postSEC) SEC in the presence of CA or NAMPT, we assessed their ability to selectively bind to NAMPT.”
# as §2
# Target sequence in this assay (P43490 whole entry, species assumed): as the sequence (P43490 whole entry) above
# HeLa cells [4] = assay: NAD(P)H autofluorescence imaging in live HeLa cells; format: cell-based, human; conditions: 5 and 10 nM FK866, 24-hour incubation
# Description: HeLa cells were seeded in four-chamber Labtek plates at 10,000 cells per well. After 48 hours, cells were preincubated with or without 12 μM Carba1 for 2 hours before addition of FK866 (5 and 10 nM). Drugs were added to phenol red–free DMEM medium, supplemented with 10% FBS 1% penicillin/streptomycin. After 24 hours of drug incubation, cells were imaged using a confocal microscope (LSM 710, Zeiss) with a two-photon excitation at 700 nm (Chameleon Vision Laser, Coherent) and a 40×/1.2 water-immersion objective. Detection was performed in single-photon mode using an avalanche photodiode detector (ConfoCor 3). NAD(P)H signal intensity was quantified as the mean signal per cell using ImageJ and normalized to the cell area.
# DRG explants = assay: Mouse embryonic 3D DRG explants: axonal degeneration and myelination (MBP/TUBB3); format: cell-based; conditions: 72 h; Carba1 12 μM or PTX 500 nM
# Description: Embryonic DRG 3D explants were prepared from E13.5 mouse embryos and seeded at one explant/1.9 cm^2 on acid-treated, Matrigel-coated glass coverslips ([64], [65]). Explants were cultured at 37°C under 5% CO2 and high saturated in humidity. From DIV 0 to DIV 3, cultures were maintained in C-medium supplemented with 10% FBS, 1× GlutaMAX, D-glucose (4 g/liter), 2.5S nerve growth factor (NGF; 50 ng/ml), and 1% penicillin/streptomycin. From DIV 3 to DIV 7, neurobasal medium supplemented with 1× B27, 1× GlutaMAX, D-glucose (4 g/liter), 2.5S NGF (50 ng/ml), and 1% penicillin/streptomycin was used to promote axon development. From DIV 7 onward, differentiation medium [C-medium supplemented with 5 μM forskolin, ascorbic acid (50 μg/ml), and heparin (25 μg/ml)] was used to support glial cell maturation and myelination, with medium changes occurring every 2 days.
# DRGs were fixed with 10% formalin for 20 min at R.T., washed with PBS, and permeabilized for 10 min with PBS–0.1% Triton X-100. Blocking was performed using a solution of 3% bovine serum albumin (BSA), 0.1% glycine, and 5% goat preimmune serum in PBS for 2 hours at R.T. DRGs were then washed in PBS and incubated overnight at 4°C with of anti-TUBB3 (1 μg/ml) and anti-MBP (1 μg/ml). After PBS washes, secondary antibodies (goat anti-mouse Alexa Fluor 488, 1:1000, and goat anti-rabbit Alexa Fluor 647, 1:1000) were applied for 1 hour at R.T. Explants were mounted with ProLong Gold antifade reagent with 4′,6-diamidino-2-phenylindole (DAPI).
# Images of random fields of DRG explants, fixed in 4% formaldehyde and immunostained for TUBB3 and MBP, were captured with consistent acquisition times across samples, using a Zeiss AxioImager M2 microscope, equipped with a Hamamatsu Orca R2 camera. Image analysis was performed using Fiji software. The images were thresholded using the default global autothreshold method. For each field, MBP^+ segments were counted and normalized to the TUBB3^+ area.
# adult mouse DRG neurons = assay: Axonal degeneration index in dissociated adult mouse DRG neurons; conditions: DIV 12 neurons, 72 h; Carba1 12 μM, PTX 50 nM, Cis 10 μM, Bort 100 nM
# Description: After 4 days in vitro (DIV), at least 30% of medium was changed, and 10 μM AraC (cytosine β-D-arabino furanoside) was added to suppress nonneuronal growth. […] Neurons were fixed with 4% paraformaldehyde (PFA), washed with PBS, permeabilized with PBS–0.01% Triton X-100 for 15 min, and blocked with PBS–10% FBS for 1 hour before being stained overnight at 4°C with neurofilament antibody. Following PBS washes, secondary antibody (goat anti-chicken Alexa Fluor 488) was applied for 2 hours at room temperature (R.T.). Following additional PBS washes, coverslips were mounted with Fluoromount-G.
# Images of random fields of dissociated adult DRG neurons, immunostained with antineurofilament or anti-TUBB3 antibodies, were captured using a 20× objective lens (Olympus IX81) and a Sensicam QE monochrome camera (Cooke Corporation). Degeneration masks were generated on the basis of the method described by Gerdts et al. ([66]). Axonal degeneration was quantified by measuring the total axonal area and fragmented axonal area in the same field, using degeneration masks as shown in fig. […] Images were processed in Fiji using global autothresholding, binarization, and the particle analyzer module to detect fragments (20 to 10,000 pixels), as previously described ([17]). The degeneration index was calculated as the ratio of fragmented axonal area to total axonal area.
# [5] = test system: HeLa cells xenografted in mice; assay: HeLa tumor xenograft in nude mice; format: in vivo; conditions: i.v. every 2 days, PTX 8 mg/kg, Carba1 60 mg/kg alone or with PTX
# Description: Five-week-old NMRI nude mice (Janvier Labs) were implanted with 10 × 10^6 HeLa cells (200 μl in PBS) on the right flank. On day 6, the mean tumor volume was 120 ± 4 mm^3. […] Behavior and signs of pain were monitored daily. Body weight and tumor volume were measured two to three times per week using electronic calipers, with tumor volume (in cubic millimeters) calculated as length (millimeters)/2 × width^2 (square millimeters). Tumor growth inhibition was analyzed using GraphPad Prism with one-way analysis of variance (ANOVA) and Dunn’s multiple comparisons test for treatment versus vehicle. Mice were euthanized on day 20, when the vehicle group reached ethical limits. Blood samples were collected by intracardiac puncture in EDTA-coated tubes for differential blood counts and hemograms, outsourced to IDEXX BioAnalytics. For biochemical analysis, blood was collected in heparin-lithium tubes, and plasma was isolated by centrifugation and frozen at −80°C. Plasma was analyzed using MS Scan II (Melet Schloesing) and VET16 reagent rotors to measure markers of renal and hepatic function, metabolism, and nutritional and muscular status. Differential counts, hemograms, and biochemical data were analyzed with GraphPad Prism using Kruskal-Wallis test and Dunn’s multiple comparisons test.
# PTX-induced neuropathy = assay: Rat model of PTX-induced peripheral neuropathy (von Frey, serum NfL, IENFD); format: in vivo
# Description: Control animals received an equivalent volume of the vehicle (cremophor EL:ethanol, 1:1) diluted 1:4 in 0.9% NaCl.
# Carba1 was injected intraperitoneally six times (50 mg/kg) on days 0, 1, 2, 4, 7, and 9, resulting in a cumulative dose of 300 mg/kg (Fig. 2F). For each injection, Carba1 was injected intraperitoneally at 50 mg/kg on days 0, 1, 2, 4, 7, and 9, for a cumulative dose of 300 mg/kg, using a stock solution (150 mg/ml; cremophor EL:ethanol, 1:1) diluted to 50 mg/ml in 0.9% NaCl. Control animals for Carba1 received the same volume of the vehicle [cremophor EL:ethanol (1:1) diluted 1:3 in 0.9% NaCl]. […] To prevent cross-exposure through feces and urine, treatment groups were randomized by cage, with each cage housing three animals.
# Tactile allodynia, a common sensory disorder reported in animal models of CIPN ([56]), was assessed using an electronic von Frey test (Bioseb) ([68]). Rats were placed in plastic compartments on a wire floor and allowed to habituate for 15 min. […] The maximum force (in grams) causing withdrawal was recorded automatically. The average of two measurements, not differing by more than 10 g, was used as the nociceptive threshold ([68]). Rats were habituated to the compartments 3 days before the first injection, and the experimenter was blinded to treatment groups.
# Blood samples were collected on day 15 in vials with a clot activator, left at R.T. for up to 1 hour before centrifugation at 4100 rpm at 20°C for 10 min. Serum was then collected, aliquoted, and stored at −80°C until analysis. To reduce batch effects, serum samples were randomized on assay plates. NfL concentration was measured in the serum using commercial kits (Simple Plex Ella ProteinSimple, USA; Rat NfL Kit ProteinSimple) ([27]).
# Skin samples from both hind paws were fixed in 4% PFA overnight at 4°C, followed by sucrose cryoprotection (10, 20, and 30%) at 4°C overnight. After embedding in tissue freezing medium, the samples were at −80°C. Sections (20 μm) were cut using a cryostat at −17°C, washed with PBS for 5 min, and dried. The sections were blocked in PBS/0.2% Triton X-100/1%BSA for 1 hour and then incubated overnight at R.T. with anti-PGP9.5 antibody (1:400). After washing with PBS, sections were incubated with goat anti-rabbit Alexa Fluor488 secondary antibody for 2 hours, and the nuclei were stained with DAPI. Imaging was performed by acquiring 0.5 μm Z-stacks and exposure times for DAPI and fluorescein isothiocyanate set to 600 ms. Quantification followed the method described by Lauria et al. ([69]).
# [6] = rat serum, day 15, outliers removed
compound,measurement,setting,value
"OC(CNc1ccccc1)Cn1c2ccc(Br)cc2c2cc(Br)ccc21 (stereo not shown) [Compound P7C3, reference compound]",relief of FK866 cytotoxicity,HeLa cells [1]; coadministration with FK866,unable to counteract the toxic effect of FK866
same,activation of NAMPT in vitro,NAMPT [2],No significant effect
"O=C(/C=C/c1cccnc1)NCCCCC1CCN(C(=O)c2ccccc2)CC1 [FK866, reference compound]",GI50,HeLa cells [1]; read-out: GI50 of FK866 alone,2.4 ± 0.09 nM
same,binding to CA (AS-MS),carbonic anhydrase (CA),neither FK866 nor Carba1 was found to bind CA
same,binding to NAMPT (AS-MS),NAMPT [3],recovered in the fraction containing NAMPT
same,reduction of NAD(P)H production,HeLa cells [4],~ 20%
"CC(=O)O[C@H]1C(=O)[C@@]2(C)[C@H]([C@H](OC(=O)c3ccccc3)[C@]3(O)C[C@H](OC(=O)[C@H](O)[C@@H](NC(=O)c4ccccc4)c4ccccc4)C(C)=C1C3(C)C)[C@]1(OC(C)=O)CO[C@@H]1C[C@@H]2O [PTX, paclitaxel, reference compound]","MBP staining (axonal myelination), agent alone",DRG explants,significant reduction in MBP staining
same,"axonal fragmentation / degeneration, agent alone",adult mouse DRG neurons,induced robust axonal degeneration
same,GI50,"HeLa cells [1]; 72 h, PrestoBlue, drug applied alone, read-out: GI50, drug alone",4.2 ± 0.4 nM
same,tumor size,[5],markedly reduced tumor size
same,"IENFD, mean","PTX-induced neuropathy; rat hind paw biopsies, day 15",13.43 number/mm
same,"IENFD, median","PTX-induced neuropathy; rat hind paw biopsies, day 15",13.62 number/mm
same,"NfL, mean",PTX-induced neuropathy; [6],96.00 pg/mL
same,"NfL, median",PTX-induced neuropathy; [6],82.50 pg/mL
same,"tactile allodynia (paw withdrawal threshold, electronic von Frey), agent alone","PTX-induced neuropathy; rat, i.p., PTX 5 mg/kg x4 or Carba1 50 mg/kg x6",developed a tactile allodynia
same,"reduction of IENFD, agent alone","PTX-induced neuropathy; rat, vs controls",30%
